From patent US20100099561A1, “HETEROBICYCLIC ALKYLTHIO-BRIDGED ISOXAZOLINES” (E.I. DU PONT DE NEMOURS AND COMPANY, priority 2008, published 2010)

What was measured:
Type in all cases: in vivo
[1] = tested on: morningglory (Ipomoea spp.); assay: Test A preemergence, morningglory; settings: 0 to 100 scale (0 no effect, 100 complete control)
Summary of the method: (§1)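 Scores reflect visual plant injury on a 0 (no effect) to 100 (complete control) scale, assessed about ten days after application in the greenhouse. Compounds were delivered in a non-phytotoxic solvent blend with surfactant, either preemergence to soil or postemergence at one- to two-leaf stage.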

[2] = tested on: wheat (Triticum aestivum); assay: Test A preemergence, wheat; settings: 0 to 100 scale (0 no effect, 100 complete control)
Summary of the method: as §1

[3] = tested on: barnyardgrass (Echinochloa crus-galli); assay: Test A postemergence, barnyardgrass; settings: 0 to 100 scale (0 no effect, 100 complete control)
Summary of the method: as §1

[4] = tested on: large crabgrass (Digitaria sanguinalis); assay: Test A postemergence, large crabgrass; settings: 0 to 100 scale (0 no effect, 100 complete control)
Summary of the method: as §1

[5] = tested on: morningglory (Ipomoea spp.); assay: Test A postemergence, morningglory; settings: 0 to 100 scale (0 no effect, 100 complete control)
Summary of the method: as §1

[6] = tested on: wheat (Triticum aestivum); assay: Test A postemergence, wheat; settings: 0 to 100 scale (0 no effect, 100 complete control)
Summary of the method: as §1

[7] = tested on: blackgrass (Alopecurus myosuroides); assay: Test B preemergence, blackgrass; settings: scale 0 to 100
Excerpt: (§2) Seeds of plant species selected from blackgrass (Alopecurus myosuroides), downy bromegrass (Bromus tectorum), green foxtail (Setaria viridis), Italian ryegrass (Lolium multiflorum), wheat (Triticum aestivum), wild oat (Avena fatua), catchweed bedstraw (Galium aparine), bermudagrass (Cynodon dactylon), Surinam grass (Brachiaria decumbens), cocklebur (Xanthium strumarium), corn (Zea mays), large crabgrass (Digitaria sanguinalis), woolly cupgrass (Eriochloa villosa), giant foxtail (Setaria faberii), goosegrass (Eleusine indica), johnsongrass (Sorghum halepense), kochia (Kochia scoparia), lambsquarters (Chenopodium album), morningglory (Ipomoea coccinea), nightshade (eastern black nightshade, Solanum ptycanthum), yellow nutsedge (Cyperus esculentus), pigweed (Amaranthus retroflexus), ragweed (common ragweed, Ambrosia elatior), soybean (Glycine max), sunflower (common oilseed sunflower, Helianthus annuus), Russian thistle (Salsola kali), and velvetleaf (Abutilon theophrasti) were planted into a blend of loam soil and sand and treated preemergence with test compounds formulated in a non-phytotoxic solvent mixture which included a surfactant. Treated plants and controls were maintained in a greenhouse for 13 to 15 days, after which time all species were compared to controls and visually evaluated. Plant response ratings, summarized in Table B, are based on a scale of 0 to 100 where 0 is no effect and 100 is complete control. A dash (-) response means no test result.

[8] = tested on: downy bromegrass (Bromus tectorum); assay: Test B preemergence, downy bromegrass; settings: scale 0 to 100
Excerpt: as §2

[9] = tested on: Italian ryegrass (Lolium multiflorum); assay: Test B preemergence, Italian ryegrass; settings: Preemergence, scale 0 to 100
Excerpt: as §2

wild oat (Avena fatua) = assay: Test B preemergence, wild oat; settings: scale 0 to 100
Excerpt: as §2

[10] = tested on: bermudagrass (Cynodon dactylon); assay: Test B preemergence, bermudagrass; settings: scale 0 to 100
Excerpt: as §2

[11] = tested on: Surinam grass (Brachiaria decumbens); assay: Test B preemergence, Surinam grass; settings: Preemergence, scale 0 to 100
Excerpt: as §2

[12] = tested on: large crabgrass (Digitaria sanguinalis); assay: Test B preemergence, large crabgrass; settings: scale 0 to 100
Excerpt: as §2

[13] = tested on: woolly cupgrass (Eriochloa villosa); assay: Test B preemergence, woolly cupgrass; settings: scale 0 to 100
Excerpt: as §2

[14] = tested on: lambsquarters (Chenopodium album); assay: Test B preemergence, lambsquarters; settings: scale 0 to 100
Excerpt: as §2

[15] = tested on: morningglory (Ipomoea coccinea); assay: Test B preemergence, morningglory; settings: scale 0 to 100
Excerpt: as §2

[16] = tested on: nightshade (eastern black nightshade, Solanum ptycanthum); assay: Test B preemergence, nightshade; settings: scale 0 to 100
Excerpt: as §2

[17] = tested on: pigweed (Amaranthus retroflexus); assay: Test B preemergence, pigweed; settings: scale 0 to 100
Excerpt: as §2

[18] = tested on: ragweed (common ragweed, Ambrosia elatior); assay: Test B preemergence, ragweed; settings: scale 0 to 100
Excerpt: as §2

soybean (Glycine max) = assay: Test B preemergence, soybean; settings: Preemergence, scale 0 to 100
Excerpt: as §2

[19] = tested on: velvetleaf (Abutilon theophrasti); assay: Test B preemergence, velvetleaf; settings: Preemergence, scale 0 to 100
Excerpt: as §2

CC1(C)CC(S(=O)(=O)Cc2c(C(F)(F)F)nc3n(c2=O)CCO3)=NO1 [Compound 2, 6-[[(4,5-dihydro-5,5-dimethyl-3-isoxazolyl)sulfonyl]methyl]-2,3-dihydro-7-(trifluoromethyl)-5H-oxazolo[3,2-α]pyrimidin-5-one]
Plant response rating, Morningglory ([1]; 125 g ai/ha): 0 | Plant response rating, Morningglory ([1]; 500 g ai/ha): 80 | Plant response rating, Wheat ([2]; 125 g ai/ha): 10 | Plant response rating, Wheat ([2]; 500 g ai/ha): 60 | Plant response rating, Barnyardgrass ([3]; 125 g ai/ha): 70 | Plant response rating, Barnyardgrass ([3]; 500 g ai/ha): 80 | Plant response rating, Crabgrass, Large ([4]; 125 g ai/ha): 60 | Plant response rating, Crabgrass, Large ([4]; 500 g ai/ha): 90 | Plant response rating, Morningglory ([5]; 125 g ai/ha): 30 | Plant response rating, Morningglory ([5]; 500 g ai/ha): 70 | Plant response rating, Wheat ([6]; 125 g ai/ha): 0 | Plant response rating, Wheat ([6]; 500 g ai/ha): 60 | Plant response rating, Blackgrass ([7]; 8 g ai/ha): 0 | Plant response rating, Blackgrass ([7]; 16 g ai/ha): 0 | Plant response rating, Blackgrass ([7]; 31 g ai/ha): 0 | Plant response rating, Blackgrass ([7]; 62 g ai/ha): 50 | Plant response rating, Bromegrass, Downy ([8]; 8 g ai/ha): 0 | Plant response rating, Bromegrass, Downy ([8]; 16 g ai/ha): 0 | Plant response rating, Bromegrass, Downy ([8]; 31 g ai/ha): 0 | Plant response rating, Bromegrass, Downy ([8]; 62 g ai/ha): 0 | Plant response rating, Ryegrass, Italian ([9]; 16 g ai/ha): 0 | Plant response rating, Ryegrass, Italian ([9]; 31 g ai/ha): 0 | Plant response rating, Ryegrass, Italian ([9]; 62 g ai/ha): 0 | Plant response rating, Oat, Wild (wild oat (Avena fatua); 8 g ai/ha): 0 | Plant response rating, Oat, Wild (wild oat (Avena fatua); 16 g ai/ha): 0 | Plant response rating, Oat, Wild (wild oat (Avena fatua); 31 g ai/ha): 0 | Plant response rating, Oat, Wild (wild oat (Avena fatua); 62 g ai/ha): 25 | Plant response rating, Bermudagrass ([10]; 8 g ai/ha): 0 | Plant response rating, Bermudagrass ([10]; 16 g ai/ha): 0 | Plant response rating, Bermudagrass ([10]; 31 g ai/ha): 75 | Plant response rating, Bermudagrass ([10]; 62 g ai/ha): 85 | Plant response rating, Surinam Grass ([11]; 16 g ai/ha): 0 | Plant response rating, Surinam Grass ([11]; 31 g ai/ha): 80 | Plant response rating, Surinam Grass ([11]; 62 g ai/ha): 80 | Plant response rating, Crabgrass, Large ([12]; 8 g ai/ha): 0 | Plant response rating, Crabgrass, Large ([12]; 16 g ai/ha): 65 | Plant response rating, Crabgrass, Large ([12]; 31 g ai/ha): 80 | Plant response rating, Crabgrass, Large ([12]; 62 g ai/ha): 90 | Plant response rating, Cupgrass, Woolly ([13]; 8 g ai/ha): 0 | Plant response rating, Cupgrass, Woolly ([13]; 16 g ai/ha): 75 | Plant response rating, Cupgrass, Woolly ([13]; 31 g ai/ha): 75 | Plant response rating, Cupgrass, Woolly ([13]; 62 g ai/ha): 95 | Plant response rating, Lambsquarters ([14]; 8 g ai/ha): 0 | Plant response rating, Lambsquarters ([14]; 31 g ai/ha): 0 | Plant response rating, Lambsquarters ([14]; 62 g ai/ha): 0 | Plant response rating, Morningglory ([15]; 8 g ai/ha): 0 | Plant response rating, Morningglory ([15]; 16 g ai/ha): 0 | Plant response rating, Morningglory ([15]; 31 g ai/ha): 0 | Plant response rating, Morningglory ([15]; 62 g ai/ha): 0 | Plant response rating, Nightshade ([16]; 8 g ai/ha): 0 | Plant response rating, Nightshade ([16]; 16 g ai/ha): 0 | Plant response rating, Nightshade ([16]; 31 g ai/ha): 0 | Plant response rating, Nightshade ([16]; 62 g ai/ha): 0 | Plant response rating, Pigweed ([17]; 8 g ai/ha): 0 | Plant response rating, Pigweed ([17]; 16 g ai/ha): 0 | Plant response rating, Pigweed ([17]; 31 g ai/ha): 0 | Plant response rating, Pigweed ([17]; 62 g ai/ha): 0 | Plant response rating, Ragweed ([18]; 31 g ai/ha): 0 | Plant response rating, Ragweed ([18]; 62 g ai/ha): 20 | Plant response rating, Soybean (soybean (Glycine max); 31 g ai/ha): 0 | Plant response rating, Soybean (soybean (Glycine max); 62 g ai/ha): 0 | Plant response rating, Velvetleaf ([19]; 16 g ai/ha): 0 | Plant response rating, Velvetleaf ([19]; 31 g ai/ha): 0 | Plant response rating, Velvetleaf ([19]; 62 g ai/ha): 0

CC1(C)CC(S(=O)(=O)Cc2c(C(F)(F)F)nc3ccsn3c2=O)=NO1 [Compound 16]
Plant response rating, Morningglory ([1]; 125 g ai/ha): 70 | Plant response rating, Morningglory ([1]; 500 g ai/ha): 80 | Plant response rating, Wheat ([2]; 125 g ai/ha): 0 | Plant response rating, Wheat ([2]; 500 g ai/ha): 0 | Plant response rating, Barnyardgrass ([3]; 125 g ai/ha): 80 | Plant response rating, Barnyardgrass ([3]; 500 g ai/ha): 90 | Plant response rating, Crabgrass, Large ([4]; 125 g ai/ha): 80 | Plant response rating, Crabgrass, Large ([4]; 500 g ai/ha): 90 | Plant response rating, Morningglory ([5]; 125 g ai/ha): 0 | Plant response rating, Morningglory ([5]; 500 g ai/ha): 50 | Plant response rating, Wheat ([6]; 125 g ai/ha): 0 | Plant response rating, Wheat ([6]; 500 g ai/ha): 50 | Plant response rating, Blackgrass ([7]; 16 g ai/ha): 10 | Plant response rating, Blackgrass ([7]; 31 g ai/ha): 85 | Plant response rating, Blackgrass ([7]; 62 g ai/ha): 90 | Plant response rating, Blackgrass ([7]; 125 g ai/ha): 100 | Plant response rating, Bromegrass, Downy ([8]; 16 g ai/ha): 0 | Plant response rating, Bromegrass, Downy ([8]; 31 g ai/ha): 0 | Plant response rating, Bromegrass, Downy ([8]; 62 g ai/ha): 0 | Plant response rating, Bromegrass, Downy ([8]; 125 g ai/ha): 30 | Plant response rating, Ryegrass, Italian ([9]; 16 g ai/ha): 0 | Plant response rating, Ryegrass, Italian ([9]; 31 g ai/ha): 0 | Plant response rating, Ryegrass, Italian ([9]; 62 g ai/ha): 30 | Plant response rating, Ryegrass, Italian ([9]; 125 g ai/ha): 60 | Plant response rating, Oat, Wild (wild oat (Avena fatua); 16 g ai/ha): 0 | Plant response rating, Oat, Wild (wild oat (Avena fatua); 31 g ai/ha): 20 | Plant response rating, Oat, Wild (wild oat (Avena fatua); 62 g ai/ha): 30 | Plant response rating, Oat, Wild (wild oat (Avena fatua); 125 g ai/ha): 60 | Plant response rating, Surinam Grass ([11]; 16 g ai/ha): 0 | Plant response rating, Surinam Grass ([11]; 31 g ai/ha): 55 | Plant response rating, Surinam Grass ([11]; 62 g ai/ha): 95 | Plant response rating, Surinam Grass ([11]; 125 g ai/ha): 98 | Plant response rating, Crabgrass, Large ([12]; 16 g ai/ha): 70 | Plant response rating, Crabgrass, Large ([12]; 31 g ai/ha): 95 | Plant response rating, Crabgrass, Large ([12]; 62 g ai/ha): 100 | Plant response rating, Crabgrass, Large ([12]; 125 g ai/ha): 100 | Plant response rating, Cupgrass, Woolly ([13]; 16 g ai/ha): 0 | Plant response rating, Cupgrass, Woolly ([13]; 31 g ai/ha): 25 | Plant response rating, Cupgrass, Woolly ([13]; 62 g ai/ha): 95 | Plant response rating, Cupgrass, Woolly ([13]; 125 g ai/ha): 98 | Plant response rating, Lambsquarters ([14]; 16 g ai/ha): 0 | Plant response rating, Lambsquarters ([14]; 31 g ai/ha): 0 | Plant response rating, Lambsquarters ([14]; 62 g ai/ha): 0 | Plant response rating, Lambsquarters ([14]; 125 g ai/ha): 98 | Plant response rating, Morningglory ([15]; 16 g ai/ha): 0 | Plant response rating, Morningglory ([15]; 31 g ai/ha): 0 | Plant response rating, Morningglory ([15]; 62 g ai/ha): 0 | Plant response rating, Morningglory ([15]; 125 g ai/ha): 0 | Plant response rating, Nightshade ([16]; 16 g ai/ha): 0 | Plant response rating, Nightshade ([16]; 31 g ai/ha): 0 | Plant response rating, Nightshade ([16]; 62 g ai/ha): 85 | Plant response rating, Nightshade ([16]; 125 g ai/ha): 95 | Plant response rating, Pigweed ([17]; 31 g ai/ha): 0 | Plant response rating, Pigweed ([17]; 62 g ai/ha): 0 | Plant response rating, Pigweed ([17]; 125 g ai/ha): 100 | Plant response rating, Ragweed ([18]; 16 g ai/ha): 0 | Plant response rating, Ragweed ([18]; 31 g ai/ha): 0 | Plant response rating, Ragweed ([18]; 62 g ai/ha): 0 | Plant response rating, Ragweed ([18]; 125 g ai/ha): 0 | Plant response rating, Soybean (soybean (Glycine max); 16 g ai/ha): 0 | Plant response rating, Soybean (soybean (Glycine max); 31 g ai/ha): 0 | Plant response rating, Soybean (soybean (Glycine max); 62 g ai/ha): 0 | Plant response rating, Soybean (soybean (Glycine max); 125 g ai/ha): 0 | Plant response rating, Velvetleaf ([19]; 16 g ai/ha): 0 | Plant response rating, Velvetleaf ([19]; 31 g ai/ha): 0 | Plant response rating, Velvetleaf ([19]; 62 g ai/ha): 0 | Plant response rating, Velvetleaf ([19]; 125 g ai/ha): 0
